`O=C(Nc1ccc(C(F)(F)F)cc1)c1ccc(-c2ncccc2Cl)cc1` registered a melting point of 208.6 °C.

For `O=C(Nc1ccc(C(F)(F)F)cc1)c1ccc(-c2ncccc2C(F)(F)F)cc1` [Example 1, N-(4-Trifluoromethyl-phenyl)-4-(3-trifluoromethyl-pyridin-2-yl)-benzamide], the melting point lay in the range of 197.8 to 197.9 °C.

These data come from US20050165015A1, “Vanilloid receptor ligands and their use in treatments” (priority 2004, published 2005).
